In patent EP4741414A1, “PEPTIDE HAVING CELL MEMBRANE PERMEABILITY AND SCREENING METHOD THEREFOR” (priority 2023, dated 2025):
Primed or numbered codes have the meaning given here. No end group written: not given here. PEG8′ = PEG8 linker (eight-unit polyethylene glycol spacer); FAM = fluorescein amidite

Columns and labels:
THP-1 macrophages = assay: Intracellular delivery of Alexa 647-labeled IgG-peptide conjugates to THP-1 macrophages; type: cell-based; conditions: for intracellular delivery amount of IgG: final concentration 5 µM, versus IgG, FIG. 12, FIG. 13; for intracellular delivery amount of IgG / intracellularly delivered amount into macrophages: uptake time 1 h; for intracellularly delivered amount into macrophages: final concentration 1 µM, compared with R001, R005 conjugates, FIG. 14; for cell-type-selective plasma membrane-penetrating activity: macrophages versus A549 cells, 1 µM, FIG. 16
Excerpt: The reaction liquid was applied to a Zeba spin desalting column (7K MWCO) equilibrated with PBS, and an unreacted cross-linking agent was removed. Thus, an IgG fraction was recovered. The peptides (synthesized by Eurofins Genomics K.K., the amino acid sequences of the peptides that are each conjugated with the IgG are shown in the following table) obtained by the above-mentioned screening, the peptides each including an amino acid sequence and each having C at its N-terminal, were each dissolved in DMSO so that a 10 mM DMSO solution was obtained. The DMSO solution of the peptide whose molar amount was 5 times as large as that of the IgG was added to the recovered IgG fraction, and EDTA was further added to the mixture so that its final concentration was 1 mM, followed by stirring by inversion at 25°C for 1 hour. After that, a fivefold molar amount of cysteine was added to the mixture, and the whole was stirred by inversion at 25°C for 30 minutes. The reaction liquid was applied to a Zeba spin desalting column (7K MWCO) equilibrated with PBS, and the peptide and cysteine that were unreacted, and EDTA were removed. Thus, an IgG-peptide conjugate was recovered.
The assay was conducted using THP-1 macrophages, which had been seeded in a 96-well plate at 20,000 cells/well, and had already been activated with PMA, IFN γ, and LPS. […] Images acquired with the all-in-one fluorescence microscope BZ-X810 (Keyence Corporation) were analyzed using the accompanying software BZ-X800 Analyzer. The uptake ratio at an uptake time of 1 h was compared based on the ratio of integrated red fluorescence intensity to integrated blue fluorescence intensity.
The uptake ratios of the proteins at an uptake time of 1 hour, which were each determined from the ratio of the brightness (integrated) of a red color to the brightness (integrated) of a blue color, were compared to each other.

[1] = tested on: three-dimensional skin model EpiDerm Full Thickness 400
Procedure: A three-dimensional skin model EpiDerm Full Thickness 400 was prepared in accordance with the manual of its manufacturer in the same manner as in Experimental Example 8. […] As a control, the known cell-penetrating peptide TAT (the sequence obtained by removing C at the N-terminal from the amino acid sequence shown in SEQ ID NO: 51) was used, and the N-terminal side thereof was modified with FAM (similarly synthesized by Eurofins Genomics K.K., theoretical molecular weight: 1,979.2).
100 Microliters of a 1% DMSO-containing PBS solution of each of the FAM-modified peptides was added to a central portion on the donor side of a cup in which the skin model was built to initiate the penetrability assay (n=3). After incubation at 37 °C under 5% CO2 for 24 h, the medium outside the cup was collected, and the concentration of peptide that penetrated the skin model was quantified fluorometrically using a microplate reader (TECAN Spark; excitation wavelength: 494 nm, emission wavelength: 521 nm).

A549 cells = assay: Intracellular delivery of Alexa 647-labeled IgG-peptide conjugates to A549 cells; type: cell-based; conditions: for cell-type-selective plasma membrane-penetrating activity: A549 cells versus macrophages, 1 µM, FIG. 16; for intracellularly delivered amount into A549 cells: final concentration 1 µM, uptake time 1 h, compared with T001, T006 conjugates, FIG. 15
Procedure: Cells 1 hour after the addition of the protein solution were observed and photographed with an all-in-one fluorescence microscope BZ-X810 (Keyence Corporation) in the same manner as in Experimental Example 14 except that A549 cells cultured in the same manner as in Experimental Example 11 were used, followed by image analysis with software BZ-X800 Analyzer included therein. The uptake ratios of the proteins at an uptake time of 1 hour, which were each determined from the ratio of the brightness (integrated) of a red color to the brightness (integrated) of a blue color, were compared to each other. The results are shown in FIG. 15 (in the figure, the height of a bar represents the average of "n" values (n=2 to 3) and an error bar represents its standard deviation).

CGKEGGSRWLIFHYMLLGG [T005]
intracellular delivery amount of IgG (THP-1 macrophages): increased the intracellular delivery amount of IgG

CRWPLWMWFVW [T001]
intracellularly delivered amount into macrophages (THP-1 macrophages): greater increase in the intracellularly delivered amount into macrophages
intracellular delivery amount of IgG (THP-1 macrophages): increased the intracellular delivery amount of IgG
cell-type-selective plasma membrane-penetrating activity (THP-1 macrophages): cell-type-selective plasma membrane-penetrating activity in macrophages

CRYYAHWLHYM [T006]
intracellularly delivered amount into macrophages (THP-1 macrophages): greater increase in the intracellularly delivered amount into macrophages
intracellular delivery amount of IgG (THP-1 macrophages): increased the intracellular delivery amount of IgG
cell-type-selective plasma membrane-penetrating activity (THP-1 macrophages): cell-type-selective plasma membrane-penetrating activity in macrophages

FAM-labeled SEQ ID NO: 40 peptide: N-terminal side of the peptide represented by SEQ ID NO: 40 modified with fluorescein amidite (FAM) through a PEG8 linker ({FAM-PEG8′}-RWNCVSCAFL; cysteine pairing not given here)
penetrability (ratio of penetrated amount outside the cup to added amount) [1]: 49.8±10.0%

CLFKAWLGVYH [R001]
cell-type-selective plasma membrane-penetrating activity (A549 cells): cell-type-selective plasma membrane-penetrating activity in A549 cells
intracellularly delivered amount into A549 cells (A549 cells): greater increase in the intracellularly delivered amount into A549 cells

CGGSRVVSYLAEYH [R005]
cell-type-selective plasma membrane-penetrating activity (A549 cells): cell-type-selective plasma membrane-penetrating activity in A549 cells
intracellularly delivered amount into A549 cells (A549 cells): greater increase in the intracellularly delivered amount into A549 cells

CYGRKKRRQRRR (CYGRKKRRQRRR-NH2; also: conjugated to Alexa 647-IgG via maleimide-PEG2-NHS) [TAT, Alexa 647-labeled IgG bonded with known membrane-permeable peptide TAT via Maleimide-PEG2-NHS Ester, reference compound]
intracellular delivery amount of IgG (THP-1 macrophages): no increase in cellular translocation was observed
